The values that follow come from patent publication US6399570B1, “Antimicrobial/endotoxin neutralizing polypeptide” (priority 1999, dated 2002).

Where a SMILES comes first, the peptide text is derived from it.

Data set [1] deals with E. coli 0111. The data set is described as follows: Potentiation of Rifampicin by LF polypeptides. The note with it: 5 μM polypeptide + 0.9 μg/ml rifampicin, 6 hr.
Method: E. coli cultures were exposed to sub-optimal doses of Rifampicin in the presence or absence of sub-optimal doses of the indicated polypeptides (FIG. 5), and were incubated for 6 hours, at which point CFU were determined.
E. coli 0111 were grown overnight as described above. Overnight cultures were then diluted 1:16,000 in 1% BP/PBS containing 0.9 μg/ml Rifampicin (Sigma-Aldrich Fine chemicals) and 5 μM LF polypeptides as indicated. Control cultures were those not exposed to any polypeptide. The diluted cultures were then incubated at 37° C. for 6 hr with aeration by shaking. The number of viable bacteria were then determined by dilution plating samples from each group and subsequently counting colony forming units (CFU). All values represent the average of duplicate independent experiments.
Data set [2] concerns RAW264.7 cells. The data set is described as follows: Cytotoxicity of LF-33 to RAW264.7 cells (MTT). The note with it: 10 μM, highest concentration used. It is filed as cell-based, murine.
Data set [3] has as its system M. smegmatis BH1.
Data set [4] relates to E. coli 0111. Description: Dose response of E. coli 0111 cells in the presence of LF polypeptides. It is filed as cell-based. The note with it: E. coli 0111, 5 hours, OD 600 nm. How it is done: To compare the activity of the above described 33-mer which contains both basic clusters, and the above described 27-mer, which contains only one basic cluster, E. coli cultures were grown for 5 hours in the presence of varying doses of the two polypeptides.
Dose response of E. coli 0111 cells in the presence of LF polypeptides. E. coli were cultured as described above, for 5 hr in the presence of varying concentrations of polypeptide 33-mer or the related 27-mer. Inhibition of culture growth was determined spectrophotometrically as described earlier.

Data set [5] relates to S. abortus LPS. Description: Limulus ELISA, ENC50 against S. abortus LPS. It is filed as biochemical, Salmonella abortus equi. The note with it: endotoxin 200 EU/ml; mean +/− SD. How it is done:
(§1) The peptide-mediated inhibition of endotoxin-induced Limulus amebocyte lysate (LAL) coagulation was measured with a sensitive LAL assay (Zhang et al., J. Clin. Microbiol. 32: 416-422 (1994)). Limulus ELISA is an endotoxin assay based on activation of the LAL coagulation by endotoxin and detection of the generated peptide-C immunoreactivity with an ELISA using a monoclonal antibody to the polypeptide. Endotoxin was defined to be neutralized when it lost its ability to activate the LAL enzymes. The 50% endotoxin-neutralizing concentration (ENC50) reflects the potency of an anti-endotoxin agent; a low ENC50 indicates high potency. Table 2 lists the determined ENC50 value of each anti-endotoxin agent against lipid A and four different types of LPS. The potency of each anti-endotoxin agent varied depending on the type of endotoxin. […] The only difference between the sequence of LF-33 and LF-27 is that LF-27 lacks the first six residues (GRRRRS) at the N-terminus of LF-33. Remarkably, this deletion led to dramatic loss of the endotoxin-neutralizing capacity of the polypeptide in this assay. Binding of serum proteins to endotoxin neutralizes the endotoxin activity in this assay by preventing endotoxin from activating LAL (Emancipator et al., Infect. Immun. 60: 596-601 (1992)).
(§2) LPS. […] LPS (purity >99%) from Neisseria meningitidis was prepared from the group B strain #6275 and its potency was 25 EU/ng. […] The potency of the above endotoxin was determined with the Limulus enzyme-linked immunosorbent assay (ELISA, 43) in comparison with US Pharmacopeia reference standard endotoxin EC-5.
(§3) Briefly, 25 μl endotoxin solution (200 EU/ml) was mixed with an equal volume of test materials in a series of two-fold dilution in 0.15 M NaCl in a sterile 96-well tissue culture plate (Nunc A/S, Roskilde, Denmark), and incubated at 37° C. for 1 h in a dry-air incubator. […] The endotoxin activity was then quantified with the use of Limulus ELISA (Zhang et al., J. Clin. Microbiol. 32: 416-422 (1994)). […] The high sensitivity of the assay allowed for very low levels of the endotoxin activity to be detected. […]

Data set [6] deals with E. coli LPS. Description: Limulus ELISA, ENC50 against E. coli LPS. In kind it is biochemical, Escherichia coli O113:H10. The note with it: endotoxin 200 EU/ml; mean +/− SD. How it is done: as §1, §2, §3
(In general: In an ELISA, binding on a coated surface is turned into a signal by an enzyme label.)

Data set [7] concerns Lipid A. The data set is described as follows: Limulus ELISA, ENC50 against Lipid A. The note with it: endotoxin 200 EU/ml; mean +/− SD. In kind it is biochemical, E. coli K12. How it is done: as §1, §2, §3
Data set [8] relates to RAW 264.7 cells. The data set is described as follows: Endotoxin-induced TNF-α secretion by RAW264.7 cells in culture medium containing 10% human serum. It is filed as cell-based, murine. The note with it: polypeptide 2.5 μM, endotoxin 10 ng/ml. How it is done: To test the suppression of endotoxin-induced TNF-α secretion under more physiological conditions, LF-33 or polymyxin B was added to human serum (final concentration 10%) before the addition of endotoxin.
Endotoxin induced TNF-α secretion by RAW 264.7 cells. The murine macrophage cell line RAW 264.7 was obtained from the American Type Culture Collection (ATCC, Rockville, Md.) and maintained as described previously (Jeremy, B., Immunol. Today. 16: 417-419 (1995)). The concentration of endotoxin in all buffers and media was controlled to below 0.1 EU/ml. The following protocol was essentially described before and used here with minor modifications (Kelly et al., Infect. Immun. 59: 4491-6 (1991)). Each well of a 96-well tissue culture plate was seeded with 150 μl RAW 264.7 cells at 10^6 cells per ml DMEM (Life Technologies, Gaithersburg, Md.) supplemented with 10% heat-treated fetal bovine serum (Life Technologies), 25 mM HEPES (N-2-hydroxyethylpiperazine-N′-2-ethanesulfonic acid; pH 7.3), penicillin (60 U/ml) and streptomycin (60 μg/ml). After overnight incubation at 37° C. in a 6% CO2 incubator, the medium was aspirated and cells washed with 3-changes of endotoxin-free Hank's balanced salt solution (HBSS, Life Technologies) supplemented with 25 mM HEPES (pH 7.3). Control endotoxin (10 ng/ml) and test materials were prepared in HBSS-HEPES. After incubation in a 37° C. water bath for 1 h, 0.2 ml of these solutions was added in triplicate to each well and incubated at 37° C. for 6 h. The supernatants were then collected and stored at −70° C. before the measurement of […] activity. Controls included HBSS-HEPES and test materials in the absence of endotoxin. TNF-α activity of the medium and test materials was below […]. The human serum used in some experiments was a pool from normal donors.
Determination of TNF activity. TNF-α activity in the culture supernatant was determined based on its cytotoxicity for the mouse fibrosarcoma cell line WEHI 164 cells (ATCC). […] The antibody at 1:100 dilution completely eliminated the cytotoxicity in the culture supernatant of the RAW 264.7 cell stimulated by endotoxin and in the mouse sera collected 1 h after intraperitoneal injection of endotoxin.
Briefly, the 96-well tissue culture plates were seeded with 100 μl WEHI164 cells (5×10^4 cells) in RPMI-1640 medium (Life Technologies) containing 10% heat-treated fetal bovine serum, 25 mM HEPES (pH 7.3), penicillin (60 U/ml), streptomycin (60 μg/ml), and actinomycin D (4 μg/ml). […] Cell viability was then determined by the addition of 10 μl MTT (Thiazolyl blue, Sigma) stock solution (5 mg/ml in saline) to each well, and the incubation was allowed to continue for 6 h. […] The plate was read at 570 nm with a reference of 630 nm in a microplate reader. […]

Data set [9] deals with P. aer. LPS. Description: Limulus ELISA, ENC50 against P. aer. LPS. In kind it is biochemical, Pseudomonas aeruginosa. The note with it: endotoxin 200 EU/ml; mean +/− SD. How it is done:
as §1, §2, §3

For data set [10], the system named is N. min. LPS. Description: Limulus ELISA, ENC50 against N. min. LPS. It is filed as biochemical, Neisseria meningitidis. The note with it: endotoxin 200 EU/ml; mean +/− SD. How it is done: as §1, §2, §3
Data set [11] deals with E. coli 0111. The data set is described as follows: Antimicrobial assay for LF polypeptides (CFU after 6 h). In kind it is cell-based. How it is done:
The antimicrobial activity of the catheptic polypeptide was measured against a clinical isolate, E. coli 0111. […] The 6 kDa catheptic fragment of LF is therefore at least as potent as twelve other natural antimicrobial polypeptides (H. G. Boman, J. Marsh, and J. A. Goode, Eds., Antimicrobial Peptides, (John Wiley & Sons Ltd., New York, N.Y., 1994)), and can function as a bactericidal agent. […] At 100 μM polypeptide, the number of viable bacteria was more than 1,000-fold greater in the cultures treated with the pepsinolytic versus cathepsinolytic fragment (FIG. 1). The basis for this difference in potency may be related to the additional, internal, pepsin cleavages which occur between the two disulfide bridges in the 6 kDa domain (Mann et al., J. Biol. Chem. 269: 23661-7 (1994); Bellamy et al., Biochim. Biophys. Acta 1121: 130-6 (1992)).
Antimicrobial assay for LF polypeptides. Cultures of E. coli 0111 (American Type Culture Collection #43887) were grown at 37° C. in 1% bactopeptone (BP) (Difco) in Dulbecco's phosphate buffered saline (dPBS) (Mediatech) with aeration by shaking (225 rpm). overnight cultures were diluted 8,000-fold in 2×concentrated BP/dPBS and mixed with an equal volume of sterile endotoxin-free distilled water containing serial dilutions of the polypeptide to be tested. The final assay volume was […] in a 12 mm×75 mm polypropylene tube (Falcon) with an ultimate dilution of the overnight cultures of 1:16,000 to yield an original inoculum of ˜1-2×10^4 CFU/ml. The final assay medium was physiological in ionic strength, 1% bactopeptone in 1×Dulbecco's phosphate buffered saline. Cultures were grown for 6 h at 37° C. with aeration as above and then cell density determined by measuring CFU/ml for each assay culture tube. Serial dilutions of each assay tube were plated on Luria Broth bactoagar and incubated for 24 h at 37° C. prior to counting colonies. All assays were done in triplicate and the standard deviation calculated for each concentration of inhibitor. Culture density at the beginning and end of the 6 h growth period was also determined from triplicate cultures lacking any polypeptide inhibitors. Untreated cultures typically grew to 1-2×10^8 CFU/ml in 6 h under these assay conditions.

In data set [12] the test system is E. coli 0111. The note with it: Bellamy et al. 1992; cited from earlier work.

Take `CSCC[C@H](NC(=O)[C@H](CC(N)=O)NC(=O)[C@H](CCCNC(=N)N)NC(=O)[C@H](CCC(N)=O)NC(=O)[C@H](Cc1c[nH]c2ccccc12)NC(=O)[C@H](CCC(N)=O)NC(=O)[C@H](Cc1ccccc1)NC(=O)[C@H](CS)NC(=O)[C@H](CCCCN)NC(=O)[C@@H](NC(=O)[C@H](C)NC(=O)[C@H](CCC(=O)O)NC(=O)[C@@H]1CCCN1C(=O)[C@H](CCC(N)=O)NC(=O)[C@H](CO)NC(=O)[C@@H](NC(=O)[C@H](C)NC(=O)[C@H](CS)NC(=O)[C@H](Cc1c[nH]c2ccccc12)NC(=O)[C@H](CCC(N)=O)NC(=O)[C@@H](NC(=O)[C@H](CO)NC(=O)[C@H](CCCNC(=N)N)NC(=O)[C@H](CCCNC(=N)N)NC(=O)[C@H](CCCNC(=N)N)NC(=O)[C@H](CCCNC(=N)N)NC(=O)CN)C(C)C)C(C)C)[C@@H](C)O)C(=O)N[C@@H](CCCNC(=N)N)C(=O)N[C@@H](CCCCN)C(=O)N[C@H](C(=O)N[C@@H](CCCNC(=N)N)C(=O)NCC(=O)N1CCC[C@H]1C(=O)O)C(C)C` [LF-33] (H-GRRRRSVQWCAVSQPEATKCFQWQRNMRKVRGP-OH): the “viable bacteria relative to the rifampicin treatment alone” value in data set [1] is “approximately 1%”. Further, in data set [2], the “cytotoxicity to RAW264.7 cells” value is recorded as “no cytotoxicity”. The “% killed, average” value in [3] (50 μM LF-33, 16 hours, average of three experiments, listed as 33-mer) is “approximately 94%”. For the same molecule, the “anti-mycobacterial MIC” value in data set [3] (M. smegmatis, 16 hours) was “not more than 10 μM”. In data set [4], the “minimum inhibitory concentration (MIC)” value lay in the range of 2 to 5 µM.

As for Polymyxin B [reference compound], the half-maximal inhibitory concentration (IC50) (in general, the concentration that gives 50% inhibition) in [5] was 18.2 µM; in [6], 1.95 µM; in data set [7] it was 0.19 µM; in data set [9], 3.91 µM; in data set [10] it was above 100 µM. Further, the “TNF-α secretion induced by P. aer. LPS” value in data set [8] (control 4,428) is on record as 4,206 +/− 956 pg/ml. For the same molecule, the “TNF-α secretion, P. aer. LPS mixing with serum first” value in [8] (control 4,428) is recorded as 4,206 +/− 956 pg/ml. Besides, the “TNF-α secretion induced by S. abortus LPS” value in data set [8] (control 5,726) is on record as 4,090 +/− 806 pg/ml. For the same molecule, the “TNF-α secretion induced by N. min. LPS” value in data set [8] (control 8,817) was 8,181 +/− 1,032 pg/ml.

“pepsinolytic fragment: 6 kDa fragment released from LF by pepsin, amino acids 1-47, no amide bond between amino acid 11 and 12 [reference compound]”: the “number of viable bacteria, pepsinolytic versus cathepsinolytic fragment” value in data set [11] (100 μM polypeptide) is “more than 1,000 fold”. The “minimum inhibitory concentration (MIC)” value in data set [11] (E. coli 0111, physiological ionic strength, 6 h, CFU) fell in the range of 11 to 33 µM. For the same molecule, the MIC previously reported in [12] is 18 µM.
